Experimental data from US20260232767A1, “INTERLEUKIN-23 RECEPTOR ANTAGONIST PEPTIDES FOR USE IN THE TREATMENT OF PSORIASIS” (Janssen Pharmaceutica NV, priority 2023, published 2026).

Tested on: subjects with moderate-to-severe plaque psoriasis
Experiment: Lipid panel laboratory values
Assay type: in vivo, human
Settings: Week 52

CC(=O)NCCCC[C@@H]1NC(=O)[C@H](Cc2c[nH]c3c(C)cccc23)NC(=O)[C@H]([C@@H](C)O)NC(=O)[C@H](CC(N)=O)NC(=O)[C@@H](NC(C)=O)C(C)(C)SSC(C)(C)[C@@H](C(=O)N[C@@H](Cc2ccc(OCCN)cc2)C(=O)N[C@@H](Cc2ccc3ccccc3c2)C(=O)NC2(C(=O)N[C@@H](CCC(=O)O)C(=O)N[C@@H](CC(N)=O)C(=O)N[C@@H](Cc3cccnc3)C(=O)N(C)CC(N)=O)CCOCC2)NC1=O [IL-23 receptor antagonist peptide, Ac-[Pen]*-N-T-[W(7-Me)]-[Lys(Ac)]-[Pen]*-Phe[4-(2-aminoethoxy)]-[2-Nal]-[THP]-E-N-[3-Pal]-Sarc-NH2 (*[Pen]-[Pen]* formdisulfidebond)]
HDL Cholesterol change from baseline, Mean (25 mg BID): 0.011 mmol/L | HDL Cholesterol change from baseline, Median (25 mg BID): -0.010 mmol/L | LDL Cholesterol change from baseline, Mean (25 mg BID): -0.155 mmol/L | LDL Cholesterol change from baseline, Median (25 mg BID): -0.105 mmol/L | Triglycerides change from baseline, Mean (25 mg BID): 0.144 mmol/L | Triglycerides change from baseline, Median (25 mg BID): 0.040 mmol/L | HDL Cholesterol change from baseline, Mean (25 mg QD): -0.034 mmol/L | HDL Cholesterol change from baseline, Median (25 mg QD): -0.023 mmol/L | LDL Cholesterol change from baseline, Mean (25 mg QD): 0.069 mmol/L | LDL Cholesterol change from baseline, Median (25 mg QD): 0.132 mmol/L | Triglycerides change from baseline, Mean (25 mg QD): 0.034 mmol/L | Triglycerides change from baseline, Median (25 mg QD): 0.040 mmol/L | HDL Cholesterol change from baseline, Mean (50 mg QD): -0.009 mmol/L | HDL Cholesterol change from baseline, Median (50 mg QD): 0.014 mmol/L | LDL Cholesterol change from baseline, Mean (50 mg QD): -0.146 mmol/L | LDL Cholesterol change from baseline, Median (50 mg QD): -0.095 mmol/L | Triglycerides change from baseline, Mean (50 mg QD): 0.156 mmol/L | Triglycerides change from baseline, Median (50 mg QD): 0.067 mmol/L | HDL Cholesterol change from baseline, Mean (100 mg BID): -0.027 mmol/L | HDL Cholesterol change from baseline, Median (100 mg BID): -0.020 mmol/L | LDL Cholesterol change from baseline, Mean (100 mg BID): -0.056 mmol/L | LDL Cholesterol change from baseline, Median (100 mg BID): -0.110 mmol/L | Triglycerides change from baseline, Mean (100 mg BID): 0.137 mmol/L | Triglycerides change from baseline, Median (100 mg BID): 0.010 mmol/L | HDL Cholesterol change from baseline, Mean (100 mg QD): -0.023 mmol/L | HDL Cholesterol change from baseline, Median (100 mg QD): -0.027 mmol/L | LDL Cholesterol change from baseline, Mean (100 mg QD): -0.147 mmol/L | LDL Cholesterol change from baseline, Median (100 mg QD): -0.060 mmol/L | Triglycerides change from baseline, Mean (100 mg QD): 0.024 mmol/L | Triglycerides change from baseline, Median (100 mg QD): -0.005 mmol/L | HDL Cholesterol change from baseline, Mean (Combined): -0.012 mmol/L | HDL Cholesterol change from baseline, Median (Combined): -0.020 mmol/L | LDL Cholesterol change from baseline, Mean (Combined): -0.098 mmol/L | LDL Cholesterol change from baseline, Median (Combined): -0.105 mmol/L | Triglycerides change from baseline, Mean (Combined): 0.118 mmol/L | Triglycerides change from baseline, Median (Combined): 0.020 mmol/L | HDL Cholesterol change from baseline, Mean (Placebo → 100 mg QD): 0.013 mmol/L | HDL Cholesterol change from baseline, Median (Placebo → 100 mg QD): -0.035 mmol/L | LDL Cholesterol change from baseline, Mean (Placebo → 100 mg QD): -0.138 mmol/L | LDL Cholesterol change from baseline, Median (Placebo → 100 mg QD): -0.212 mmol/L | Triglycerides change from baseline, Mean (Placebo → 100 mg QD): 0.207 mmol/L | Triglycerides change from baseline, Median (Placebo → 100 mg QD): 0.035 mmol/L
